Results reported in US10473647B1, “Peptides for use in treatment and diagnosis of type 1 diabetes” (ImmusanT, Inc., priority 2014, dated 2019).

System: whole blood from subjects with Type 1 Diabetes
Assay: Whole blood IP-10 release assay, fine mapping of preproinsulin epitope (Example 3)
Format: cell-based, human
Conditions: peptide 10 μM; average of 4 subjects with T1D; FIG. 1A-1C
Text: The leader sequence of the preproinsulin epitope was fine mapped with lys-substituted peptides and C- and N-terminal truncations. […] Without wishing to be bound by any theory, a therapeutic and/or diagnostic peptide in accordance with the present disclosure may be selected to avoid CD8 activity but ensure that CD4 T cells were targeted. The data are the averages of 4 subjects whole blood IP-10 release measured as fold change over medium alone without peptide.
Whole blood was collected from 4 subjects with Type 1 Diabetes aged between 29 and 45-years old. […] In whole blood assays using fresh heparinized blood incubated with peptide (final concentration 10 μM) in phosphate buffered saline (PBS) and DMSO in 96-well round-bottom plates. Peptides (purity by LC-MS >80%) were truncations or lysine-substituted variants of a sequence in preproinsulin shown to be immunogenic in previous studies comparing peptides spanning this polypeptide. […] Assay plates were run on the Luminex MAGPIX magnetic plate reader. The upper limit of quantitation is 10,000 pg/mL and the lower limit of detection is 3.2 pg/mL. The Fold Change of cytokine concentrations from incubations with individual peptides was calculated by dividing the cytokine concentration from the individual peptide incubations by the cytokine concentration of incubations with PBS and DMSO (NIL) on the same assay plates. […]

## LPLLALLAL [SEQ ID NO: 76]
  bioactivity in whole blood IP-10 release assay (fold change over medium alone), in words: suggests this is an epitope for CD8 T cells
